Reference: the PolyMetriX glass transition set
± gives the standard deviation of the reports.

SMILES	glass transition temperature [°C]
*c1ccc2c(c1)C(=O)N(c1ccc(S(=O)(=O)c3ccc(N4C(=O)c5ccc(C(*)(C(F)(F)F)C(F)(F)F)cc5C4=O)cc3)cc1)C2=O (repeat unit)	336.50 ± 0.7
*=Cc1cc(OCCCCCCCC)c(/C=N/c2ccc(N=*)cc2)cc1OCCCCCCCC (repeat unit)	32.70
*Nc1cnc(*)s1 (repeat unit)	139.00
*c1ccc(Oc2ccc(-c3ccc(Oc4ccc(N5C(=O)c6ccc(Oc7ccc8ccc(Oc9ccc%10c(c9)C(=O)N(*)C%10=O)cc8c7)cc6C5=O)cc4)cc3)cc2)cc1 (repeat unit)	231.00
*Oc1ccc(C(=O)OCC(C)(C)COC(=O)c2ccc(*)cc2)cc1 (repeat unit)	73.00
*/C=C/CCC* (repeat unit) [Poly(1-pentenylene)]	-100.08 ± 7
*CC(*)(C)C(=O)Oc1ccc([N+](=O)[O-])c(C)c1 (repeat unit)	101.00
*CCCN(*)C (repeat unit)	-37.50
*C(*)F (repeat unit)	102.00
*CC(C)C(*)(C)C (repeat unit)	37.00
*CC(CS(=O)(=O)CCCC)O* (repeat unit)	37.00
*Oc1cc(OC(=O)c2ccc(OC)cc2)c(OC(=O)CCCC(*)=O)cc1OC(=O)c1ccc(OC)cc1 (repeat unit)	88.00
*c1cccc(N2C(=O)C3CCC(C4CCC5C(=O)N(*)C(=O)C5C4)CC3C2=O)c1 (repeat unit)	263.00
*Oc1ccc(S(=O)(=O)c2ccc(Oc3ccc(C(c4ccccc4)(c4ccccc4)c4ccc(*)cc4)cc3)cc2)cc1 (repeat unit)	230.00
*CC(*)C(=O)c1ccc(CCC)cc1 (repeat unit)	44.00
*CCCOCCCCOCCCN1C(=O)c2ccc(C(=O)Oc3ccc(OC(=O)c4ccc5c(c4)C(=O)N(*)C5=O)c(-c4ccccc4)c3)cc2C1=O (repeat unit)	71.00
*c1ccc(Cc2ccc(N3C(=O)c4ccc(Oc5ccc(Oc6ccc7c(c6)C(=O)N(*)C7=O)cc5)cc4C3=O)c(C)c2C)c(C)c1C (repeat unit)	277.00

SMILES	glass transition temperature [°C]
*CC(*)OCC (repeat unit) [Poly(ethyl vinyl ether)]	-26.58 ± 9.8
*c1ccc2c(c1)C(CCCCCCCC)(CCCCCCCC)c1cc(-c3ccc4c(c3)C(c3ccc(-c5nnc(-c6ccc(C(C)(C)C)cc6)o5)cc3)(c3ccc(-c5nnc(-c6ccc(C(C)(C)C)cc6)o5)cc3)c3cc(*)ccc3-4)ccc1-2 (repeat unit)	213.00
*c1cccc(NC(=O)c2ccc(OCCOCCOCCOCCOc3ccc(C(=O)Nc4ccc5[nH]c(*)nc5c4)cc3)cc2)c1 (repeat unit)	155.00
*c1cccc(-c2ccc3[nH]c(S(=O)(=O)c4nc5ccc(*)cc5[nH]4)nc3c2)c1 (repeat unit)	290.00
*CCCCOC(=O)OCCCCCCOC(=O)OCCCCn1c(=O)c2cc3c(=O)n(*)c(=O)c3cc2c1=O (repeat unit)	37.00
*Oc1ccc(/C(=N/c2ccc(/N=C(\c3ccccc3)c3ccc(Oc4ccc(C(c5ccccc5)(c5ccccc5)c5ccc(*)cc5)cc4)cc3)cc2)c2ccccc2)cc1 (repeat unit)	198.00
*C(=O)c1ccccc1-c1ccccc1C(=O)N1CCN(*)CC1 (repeat unit)	193.00
*CC(C)(CC)CS* (repeat unit)	-50.00
*CC(*)OC(=O)c1ccccc1OC (repeat unit)	65.00
*c1ccc(Oc2ccc(S(=O)(=O)c3ccc(Oc4ccc(N5C(=O)c6ccc(Oc7ccc(Oc8ccc9c(c8)C(=O)N(*)C9=O)cc7)cc6C5=O)cc4)cc3)cc2)cc1 (repeat unit)	201.00
*c1ccc(-c2cc(C(C)(C)C)c(Oc3ccc(N4C(=O)c5ccc(S(=O)(=O)c6ccc7c(c6)C(=O)N(*)C7=O)cc5C4=O)cc3C(F)(F)F)c(C(C)(C)C)c2)cc1 (repeat unit)	365.50
*CC(=O)Nc1ccc(Oc2cccc(Oc3ccc(NC(=O)c4ccc5c(c4)C(=O)N(*)C5=O)cc3)c2)cc1 (repeat unit)	220.00
*Nc1cccc(NC(=O)c2cccc(C(=O)Nc3ccc(C(=O)NC(*)=S)cc3)c2)c1 (repeat unit)	270.00
*c1cc(C(=O)Oc2cccc3cccnc23)c(*)s1 (repeat unit)	154.00
*CCCCCC(=O)NNC(=O)c1ccc(C(=O)NNC(=O)CCCCCOc2ccc(O*)c(C)c2)cc1 (repeat unit)	126.00
*CCCCCCCCCCN/C(C)=N/* (repeat unit)	80.00

Next, values leading:

glass transition temperature [°C]	SMILES
225.00	*C(=O)Oc1ccc(C(C)(C)c2ccc(OC(=O)c3ccc4c(c3)C(=O)N(c3cccc(N5C(=O)c6ccc(*)cc6C5=O)c3)C4=O)cc2)cc1 (repeat unit)
226.00	*C(=O)c1ccc2c(c1)C(=O)N(c1ccc(S(=O)(=O)c3ccc(NC(=O)c4cccc(C(=O)Nc5ccc(S(=O)(=O)c6ccc(N7C(=O)c8ccc(*)cc8C7=O)cc6)cc5)c4)cc3)cc1)C2=O (repeat unit)
75.00	*Oc1ccc(CC(NC(=O)CCc2ccc(OC(=O)CCC(*)=O)cc2)C(=O)OCC(C)C)cc1 (repeat unit)
171.00	*O[Si](Oc1ccc(C2(c3ccc(*)c(C)c3)c3ccccc3-c3ccccc32)cc1C)(c1ccccc1)c1ccccc1 (repeat unit)
92.40	*CCCS(=O)(=O)c1ccc(/N=N/c2ccc(N(CCCC)CC(=O)O*)cc2)cc1 (repeat unit)
-23.50	*CCOCCOCCOCCOCCOCCOC(=O)c1cccc(C(=O)O*)c1 (repeat unit)
95.00	*CC(O)COc1ccc(C(C)(CC)c2ccc(O*)cc2)cc1 (repeat unit)
58.00	*c1ccc(C(=O)OCCCCCCCCCCOc2ccc(/C=C3\CC/C(=C\c4ccc(OCCCCCCCCCCOC(=O)c5ccc(-c6nnc(*)o6)cc5)cc4)C3=O)cc2)cc1 (repeat unit)
262.00	*c1ccc(Oc2ccc(C3(c4ccc(Oc5ccc(N6C(=O)c7ccc(Oc8c(C)cc(C(C)(C)c9cc(C)c(Oc%10ccc%11c(c%10)C(=O)N(*)C%11=O)c(C)c9)cc8C)cc7C6=O)cc5)cc4)CC4CC3C3CCCC43)cc2)cc1 (repeat unit)
122.30	*c1ccc(-c2sc(-c3cc(CCCC)c(*)s3)cc2CCCC)cc1 (repeat unit)
181.00	*Oc1ccc(C2(c3ccc(OC(=O)c4ccc(Oc5ccc(C6(c7ccc(Oc8ccc(C(*)=O)cc8)cc7)CCC(C(C)(C)C)CC6)cc5)cc4)cc3)CC3CC2C2CCCC32)cc1 (repeat unit)
40.50	*CC[CH2][Sn]([CH3])([CH3])[CH2]CCOC(=O)C(CCCCCCOc1ccc(-c2ccc(OCc3ccc([N+](=O)[O-])cc3)cc2)cc1)C(=O)O* (repeat unit)
265.00	*C(=S)Nc1ccc(Oc2ccc(NC(=S)n3c(=O)c4cc5c(=O)n(*)c(=O)c5cc4c3=O)cc2)cc1 (repeat unit)
34.00	*OCCOC(=O)CCCCC(=O)OCCOc1nc(-c2ccc(OCCCC)cc2)nc(*)c1-c1ccc(OC)cc1 (repeat unit)
278.00	*C(=O)Nc1ccc(Oc2ccc(NC(=O)c3ccc4c(c3)C(=O)N(c3ccc(Oc5cccc6c(N7C(=O)c8ccc(*)cc8C7=O)cccc56)cc3)C4=O)cc2)cc1 (repeat unit)
23.00	*CC(*)(C)C(=O)OCCCCCCC(F)(F)C(F)(F)C(F)(F)C(F)(F)F (repeat unit)
51.00	*CC(*)(C)C(=O)OCCCCCCOc1ccc(OC(=O)c2ccc(OC)c(Br)c2)cc1 (repeat unit)
201.00	*/C(=C/c1cc(OC)c(/C=C(\c2ccc(F)cc2)c2ccc(-c3ccc(*)cc3)cc2)cc1OC)c1ccc(F)cc1 (repeat unit)
218.00	*Oc1c(-c2ccccc2)cc(*)cc1-c1ccc(C)cc1 (repeat unit)
274.00	*c1ccc(Oc2ccc(N3C(=O)c4ccc([Si](C)(C)c5ccc6c(c5)C(=O)N(*)C6=O)cc4C3=O)cc2)cc1 (repeat unit)
62.00	*CCCCCCCCCCCC(=O)Oc1ccc2cc(OC(=O)CCCCCCCCCCCn3c(=O)c4cc5c(=O)n(*)c(=O)c5cc4c3=O)ccc2c1 (repeat unit)
198.00	*c1ccc2c(c1)C(=O)N(c1cc(N3C(=O)c4ccc(C(*)(C(F)(F)F)C(F)(F)F)cc4C3=O)ccc1OCCCCCCOc1ccc(/N=N/c3ccc(OCC)cc3)cc1)C2=O (repeat unit)
278.00	*C(=O)Nc1ccc(/N=N/c2ccc([N+](=O)[O-])cc2)c(NC(=O)c2ccc3c(c2)C(=O)N(c2c(C)cc(-c4cc(C)c(N5C(=O)c6ccc(*)cc6C5=O)c(C)c4)cc2C)C3=O)c1 (repeat unit)
235.00	*c1ccc(Oc2ccc(C(=O)c3ccc(C(=O)c4ccc(Oc5ccc(-c6cc(*)[nH]n6)cc5)cc4)cc3)cc2)cc1 (repeat unit)
129 ± 5.4	*CCCCCCNC(=O)c1cccc(C(=O)N*)c1 (repeat unit) [Poly(hexamethylene isophthalamide) ]
180.00	*CC(CC(*)(C#N)C#N)c1ccc(F)cc1 (repeat unit)
249.00	*Oc1ccc(S(=O)(=O)c2ccc(OC(=O)c3cccc(C(*)=O)c3)cc2)cc1 (repeat unit)
210.00	*CC(C)(C)C1C(=O)N(c2c(CC)cccc2CC)C(=O)C1* (repeat unit)
275.00	*C(=O)Nc1ccc(Oc2ccc(Oc3ccc(NC(=O)c4ccc5c(c4)C(=O)N(c4ccc(Oc6ccc(C7(c8ccc(Oc9ccc(N%10C(=O)c%11ccc(*)cc%11C%10=O)cc9)cc8)CC8CC7C7CCCC87)cc6)cc4)C5=O)cc3)c(C(C)(C)C)c2)cc1 (repeat unit)
33.00	*Oc1cc(OC(=O)c2ccc(OC)cc2)c(OC(=O)CCCCCCCCCCCCCCC(*)=O)cc1OC(=O)c1ccc(OC)cc1 (repeat unit)
